Values of other authors as cited in patent US7534787B2, “Method of treating diseases and conditions associated with an altered level of amyloid beta peptides and new enolcarboxamide compounds” (Boehringer Ingelheim International GmbH, priority 2004, dated 2009).

System: Aβ42
Conditions: according to table 3 of WO 01/78721

| SMILES | Aβ42 lowering activity |
| --- | --- |
| Cc1cc(NC(=O)C2=C(O)c3ccccc3S(=O)(=O)N2C)no1 [isoxicam] | do not lower or even increase the Aβ42 level |
| CN1C(C(=O)Nc2ccccn2)=C(O)c2ccccc2S1(=O)=O [piroxicam] | do not lower or even increase the Aβ42 level |
